Values of other authors, collected in patent US6001802A, “Platelet-derived growth factor analogues” (Trigen Limited, priority 1993, dated 1999).
Where no end group is shown, it is not given here.

Key:
[1] = system: smooth muscle cells of injured arteries; settings: administration of PDGF, rat angioplasty model [19]
PDGF β-receptors = PDGF β-receptors (Homo sapiens, UniProt P09619); settings: reference [6]
PDGF β-receptors, sequence (P09619 33-1106): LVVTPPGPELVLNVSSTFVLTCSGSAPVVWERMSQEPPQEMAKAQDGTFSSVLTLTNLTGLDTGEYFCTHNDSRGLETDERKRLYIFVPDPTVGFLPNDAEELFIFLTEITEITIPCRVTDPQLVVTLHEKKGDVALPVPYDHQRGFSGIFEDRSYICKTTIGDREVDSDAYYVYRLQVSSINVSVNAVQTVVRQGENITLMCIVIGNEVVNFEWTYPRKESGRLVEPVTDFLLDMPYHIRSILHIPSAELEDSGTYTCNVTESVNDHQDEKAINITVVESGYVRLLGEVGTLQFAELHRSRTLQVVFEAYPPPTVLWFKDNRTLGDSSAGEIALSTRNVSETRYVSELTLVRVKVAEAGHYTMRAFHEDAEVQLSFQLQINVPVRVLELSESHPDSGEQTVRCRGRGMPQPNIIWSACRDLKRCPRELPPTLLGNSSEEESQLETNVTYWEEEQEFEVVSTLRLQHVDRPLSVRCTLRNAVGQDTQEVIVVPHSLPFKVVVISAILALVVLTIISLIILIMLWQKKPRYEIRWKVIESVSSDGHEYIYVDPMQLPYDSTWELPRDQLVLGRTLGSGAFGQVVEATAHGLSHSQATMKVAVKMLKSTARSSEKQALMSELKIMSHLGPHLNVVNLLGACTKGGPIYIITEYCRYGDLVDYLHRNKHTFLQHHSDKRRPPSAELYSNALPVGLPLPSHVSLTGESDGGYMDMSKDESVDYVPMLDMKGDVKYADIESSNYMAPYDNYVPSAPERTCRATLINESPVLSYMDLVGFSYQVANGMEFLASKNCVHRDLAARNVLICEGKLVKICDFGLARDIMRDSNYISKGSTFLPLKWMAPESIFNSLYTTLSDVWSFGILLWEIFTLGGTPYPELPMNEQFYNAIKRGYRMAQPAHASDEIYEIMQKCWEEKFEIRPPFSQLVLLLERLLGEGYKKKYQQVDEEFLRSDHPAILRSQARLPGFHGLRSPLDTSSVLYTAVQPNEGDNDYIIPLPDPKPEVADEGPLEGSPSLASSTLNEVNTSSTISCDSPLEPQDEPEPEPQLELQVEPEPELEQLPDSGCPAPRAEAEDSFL

Row | antagonist for PDGF (PDGF β-receptors) | Substance | SMC migration from the media to the intima [1] [fold] | SMC proliferation in the media [1]
1 | – | PDGF: 28-31 KD dimeric, highly basic glycoprotein, potent mitogen for connective tissue cells | 20 | 2-3 fold
2 | effective as an antagonist for PDGF | ANFLVW - - - EIVRKKP (also: N-terminal ANFLVW segment joined by an unspecified link (- - -)) [literature peptide of PDGF-B chain residues 35-40 and 78-83 [6]] | – | –
